Legend:
Type in all cases: cell-based, Chinese Hamster
[1] = tested on: CHO perfusion cell culture; assay: cells; details: for increase of the cell specific productivity: relative to cell culture without the additive; for cell growth (VCD) relative to normal perfusion media / specific productivity relative to normal perfusion media: each concentration (arachidonic acid 500 μM; PGE2 0.001, 10, 20, 60 μM), before day 6
Protocol: (§1) The below examples, unless specified otherwise, were carried out using the following generalized protocol and apparatus for perfusion cell culture. Two different formats of perfusion culture process were employed for the experiments described in the examples. One is executed in a bioreactor model and the other is in a deep-well plate model.
(§2) The deep-well plate model is carried out using 24 deep-well plates with an 8 day run duration. A starting cell density of 20e^6 cells/ml is targeted for deep well plate model work. The working volume per well is 3 ml and cells are grown at 33° C. with 5% CO2, 80% humidity, and 200 rpm in an incubator with a 5.0 cm orbit diameter. Medium exchanges are performed daily by centrifuging the plate at 1800 rpm for 5 mins, removing supernatant, and re-suspending the cells in fresh media at 70% volume per day (VVD) exchange rate. Further details of the setup is described by Lin et al. (Biotechnol. Prog., 2017, Vol. 33, No. 4).
In this example, the deep-well plate model is used.
Linoleic acid at various concentrations 500 μM, 900 μM, 1350 μM and 1800 μM was added to the cell culture media and the effects on (A) viable cell density (e^5 cells/nil), (B) percent (%) cell viability and (C) specific productivity (qp) were determined.
In this example, the deep-well plate model is used. This example analyzes the effect of arachidonic acid when added to perfusion medium.
The effect of arachidonic acid on (A) viable cell density (e^5 cells/nil), (B) percent (%) cell viability and (C) specific productivity (qp) of the cell culture was determined.
In this example, the deep-well plate model is used. This experiment analyzes the effect of prostaglandin E2 when added to perfusion medium.
At each concentration, the VCD and specific productivity (i.e., specific titer), the growth was suppressed cell growth and the specific productivity was increased before day 6 relative to the cell culture in normal perfusion media.

[2] = tested on: CHO perfusion cell culture; assay: Deep-well plate perfusion cell culture model, acetylsalicylic acid (ASA) in perfusion media with 500 μM arachidonic acid
Protocol: as §1, §2
In this example, the deep-well plate model is used. ASA is an inhibitor of COX-1 and COX-2, which are the metabolic enzymes which convert arachidonic acid to synthesize prostaglandin E2 (See FIG. 2). This experiment therefore analyses the effect of acetylsalicylic acid (ASA) when added to perfusion medium.
The data provide evidence that prostaglandin E2 is effective in triggering cell growth suppression and in increasing cell specific productivity.

[3] = tested on: CHO perfusion cell culture; assay: Deep-well plate perfusion cell culture model, arachidonic acid added to k-pop (high potassium) perfusion medium; details: 150 μM to 500 μM in medium with about 34 mM sodium and 94 mM potassium; beyond the effect of high potassium alone
Protocol: as §1
as §2, with “4). […]” for “4).”
The effect of concentrations of arachidonic acid added at 150 μM, 300 μM and 500 μM to a cell culture media having a sodium concentration of approximately 34 mM and a preexisting high potassium concentration of approximately 94 mM, i.e., a low sodium-to-potassium ratio of about 0.4, was determined with respect to (A) viable cell density (e^5 cells/nil), (B) percent (%) cell viability and (C) specific productivity (qp) was determined.

[4] = Cricetulus griseus, read-out: decrease of the VCD (viable cell density)
[5] = added to perfusion medium, 500-1800 μM (Example 2, FIG. 3)
[6] = ASA in perfusion media with 500 μM arachidonic acid
[7] = 500 μM added in the normal perfusion media (Example 3, FIG. 4)

Compound: CCCCC/C=C\C/C=C\CCCCCCCC(=O)O [linoleic acid]
- increase of the cell specific productivity ([1]; 500 μM in growth medium): up to 10%
- increase of the cell specific productivity ([1]; 900 μM in growth medium): up to 14%
- increase of the cell specific productivity ([1]; 1350 μM in growth medium): up to 14%
- increase of the cell specific productivity ([1]; 1800 μM in growth medium): up to 30%
- viable cell density, viability and specific productivity relative to the normal perfusion media ([1]; 1800 μM, similar to arachidonic acid at 500 μM): most significant difference
- cell specific productivity relative to normal perfusion media ([1]; 500, 900 and 1350 μM, day 7, about the same at the three concentrations): significantly increased
- cytotoxicity at 500 µM [1, 4]: 6 to 10%
- cytotoxicity at 900 µM [1, 4]: 11 to 14%
- cytotoxicity at 1350 µM [1, 4]: 11 to 25%
- cytotoxicity at 1800 µM [1, 4]: 23 to 39.8%
- cell growth [1, 5]: suppresses cell growth
- cell specific productivity (qp) [1, 5]: increases cell specific productivity

Compound: CC(=O)Oc1ccccc1C(=O)O [ASA, acetylsalicylic acid]
- specific productivity compared with normal perfusion medium [2, 6]: same effect
- viable cell density compared with normal perfusion medium [2, 6]: higher

Compound: CCCCC/C=C\C/C=C\C/C=C\C/C=C\CCCC(=O)O [arachidonic acid]
- suppressing cell growth and increasing productivity ([2]; 500 μM arachidonic acid when COX-1 and COX-2 are inhibited by ASA): no effect
- increase of cell specific productivity (qp) [1, 7]: ≥ 46%
- suppression of cell growth [1, 7]: up to 31%
- increase of the cell specific productivity ([1]; 500 μM in growth medium): up to 52%
- cytotoxicity at 500 µM [1, 4]: 15 to 36%
- cell growth (VCD) relative to normal perfusion media [1]: suppressed
- specific productivity relative to normal perfusion media [1]: increased
- cell growth [3]: decreases cell growth
- cell specific productivity [3]: improves cell specific productivity

Compound: CCCCC[C@H](O)/C=C/[C@H]1[C@H](O)CC(=O)[C@@H]1C/C=C\CCCC(=O)O [prostaglandin E2]
- increase of the cell specific productivity ([1]; 0.001 μM in growth medium): up to 13.5%
- increase of the cell specific productivity ([1]; 10 μM in growth medium): up to 34.4%
- increase of the cell specific productivity ([1]; 20 μM in growth medium): up to 31%
- increase of the cell specific productivity ([1]; 60 μM in growth medium): up to 31%
- cell growth (VCD) relative to normal perfusion media [1]: suppressed
- specific productivity relative to normal perfusion media [1]: increased

Source: patent US20200332251A1, “PERFUSION MEDIUM” (Boehringer Ingelheim International GmbH, priority 2017, published 2020)
